Source: PubChem BioAssay AID330 (DTP/NCI, 2004)
Several values for one entry are separate records, joined by “and”; a condition that tells them apart may be missing. Equal entries are not always repeated. Toxic doses and inconclusive results are not listed.

Test system: P388 leukemia ip, CD2F1 mice, survival T/C
Assay: NCI In Vivo Anticancer Drug Screen. Data for tumor model P388 Leukemia (intraperitoneal) in CD2F1 (CDF1) mice
Conditions: endpoint: median survival time, higher = longer survival
Procedure, shortened: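 Mice carrying the transplanted tumor received test compound or vehicle. Survival was recorded in each group, and the value is the treated-group measurement divided by that of the vehicle-treated control group.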

[1] = dose: 50.0 mg/kg/injection, schedule: Q01DX009 (ip), vehicle: saline with Tween-80
[2] = dose: 100.0 mg/kg/injection, schedule: Q01DX009 (ip), vehicle: saline with Tween-80
[3] = dose: 200.0 mg/kg/injection, schedule: Q01DX009 (ip), vehicle: saline with Tween-80
[4] = dose: 25.0 mg/kg/injection, schedule: Q01DX009 (ip), vehicle: saline with Tween-80
[5] = dose: 12.5 mg/kg/injection, schedule: Q01DX009 (ip), vehicle: saline with Tween-80
[6] = dose: 50.0 mg/kg/injection, schedule: Q01DX005 (ip), vehicle: Klucel (hydroxypropylcellulose) (HPC)
[7] = dose: 100.0 mg/kg/injection, schedule: Q01DX005 (ip), vehicle: Klucel (hydroxypropylcellulose) (HPC)
[8] = dose: 60.0 mg/kg/injection, schedule: Q01DX005 (ip), vehicle: saline with Tween-80
[9] = dose: 120.0 mg/kg/injection, schedule: Q01DX005 (ip), vehicle: saline with Tween-80
[10] = dose: 240.0 mg/kg/injection, schedule: Q01DX005 (ip), vehicle: saline with Tween-80
[11] = dose: 50.0 mg/kg/injection, schedule: Q01DX005 (ip), vehicle: saline with Tween-80
[12] = dose: 60.0 mg/kg/injection, schedule: Q01DX005 (ip), vehicle: Klucel (hydroxypropylcellulose) (HPC)
[13] = dose: 120.0 mg/kg/injection, schedule: Q01DX005 (ip), vehicle: Klucel (hydroxypropylcellulose) (HPC)
[14] = dose: 200.0 mg/kg/injection, schedule: Q01DX005 (ip), vehicle: Klucel (hydroxypropylcellulose) (HPC)
[15] = dose: 50.0 mg/kg/injection, schedule: Q01DX005 (ip), vehicle: saline
[16] = dose: 100.0 mg/kg/injection, schedule: Q01DX005 (ip), vehicle: saline
[17] = dose: 200.0 mg/kg/injection, schedule: Q01DX005 (ip), vehicle: saline
[18] = dose: 50.0 mg/kg/injection, schedule: Q01DX009 (ip), vehicle: saline
[19] = dose: 12.5 mg/kg/injection, schedule: Q01DX009 (ip), vehicle: Klucel (hydroxypropylcellulose) (HPC)
[20] = dose: 25.0 mg/kg/injection, schedule: Q01DX009 (ip), vehicle: Klucel (hydroxypropylcellulose) (HPC)
[21] = dose: 50.0 mg/kg/injection, schedule: Q01DX009 (ip), vehicle: Klucel (hydroxypropylcellulose) (HPC)
[22] = dose: 100.0 mg/kg/injection, schedule: Q01DX009 (ip), vehicle: Klucel (hydroxypropylcellulose) (HPC)

Cc1cccc(C2=Nc3ccccc3N3CC=CC=C23)c1
T/C [1]: 110 % of control | T/C [2]: 97 % of control | T/C [3]: 92 % of control

O=C(N/N=C/c1cc(Br)ccc1[O-])c1ccccc1O.O=C(N/N=C/c1cc(Br)ccc1[O-])c1ccccc1O.[Co+2]
T/C (dose: 100.0 mg/kg/injection, schedule: Q04DX002 (ip), vehicle: Klucel (hydroxypropylcellulose) (HPC)): 90 % of control | T/C (dose: 200.0 mg/kg/injection, schedule: Q04DX002 (ip), vehicle: Klucel (hydroxypropylcellulose) (HPC)): 90 % of control

Cn1c(=O)c2conc2n(-c2ccc(Cl)cc2)c1=O
T/C [4]: 100 % of control | T/C [1]: 103 % of control | T/C [2]: 95 % of control

O=P(c1ccccc1)(c1ccccc1)c1ccccc1.O=P(c1ccccc1)(c1ccccc1)c1ccccc1.S=C=[N][Sn]([N]=C=S)([N]=C=S)[c]1ccccc1
T/C (dose: 100.0 mg/kg/injection, schedule: Q04DX003 (ip), vehicle: saline): 105 % of control | T/C (dose: 200.0 mg/kg/injection, schedule: Q04DX003 (ip), vehicle: saline): 108 % of control | T/C (dose: 400.0 mg/kg/injection, schedule: Q04DX003 (ip), vehicle: saline): 100 % of control

Cc1ccc(-c2c3c(c(-c4ccc(C)cc4)c(-c4ccccc4)c2-c2ccccc2)-c2ccccc2C3)cc1
T/C [5]: 98 % of control | T/C [4]: 98 % of control | T/C [1]: 99 % of control and 89 % of control

COC(=O)C[C@](O)(CCC(C)(C)O)C(=O)O[C@@H]1C(OC)=C[C@]23CCCN2CCc2cc4c(cc2[C@H]13)OCO4
T/C (dose: 0.5 mg/kg/injection, schedule: Q01DX009 (ip), vehicle: saline): 177 % of control | T/C (dose: 1.0 mg/kg/injection, schedule: Q01DX009 (ip), vehicle: saline): 231 % of control

COc1ccc2ccc3oc([N+](=O)[O-])cc3c2c1
T/C [6]: 108 % of control | T/C [7]: 119 % of control | T/C (dose: 400.0 mg/kg/injection, schedule: Q01DX005 (ip), vehicle: Klucel (hydroxypropylcellulose) (HPC)): 92 % of control

CC(C)N(C(=O)c1ccc([Si](C)(C)C)c(C(=O)N(C(C)C)C(C)C)n1)C(C)C
T/C [8]: 98 % of control | T/C [9]: 94 % of control | T/C [10]: 98 % of control

CC(C)c1oc(=O)cc2c1[C@@H](O)[C@H]1OC(=O)[C@@]3(C)[C@@H](O)[C@H]4O[C@H]4[C@@]2(C)[C@@H]13
T/C (dose: 0.94 mg/kg/injection, schedule: Q01DX001 (ip), vehicle: saline with Tween-80): 105 % of control | T/C (dose: 1.0 mg/kg/injection, schedule: Q01DX009 (ip), vehicle: saline with Tween-80): 104 % of control | T/C (dose: 1.88 mg/kg/injection, schedule: Q01DX001 (ip), vehicle: saline with Tween-80): 105 % of control | T/C (dose: 3.75 mg/kg/injection, schedule: Q01DX001 (ip), vehicle: saline with Tween-80): 101 % of control and 107 % of control | T/C (dose: 7.5 mg/kg/injection, schedule: Q01DX009 (ip), vehicle: saline with Tween-80): 120 % of control | T/C (dose: 10.0 mg/kg/injection, schedule: Q01DX009 (ip), vehicle: saline with Tween-80): 113 % of control and 115 % of control | T/C (dose: 15.0 mg/kg/injection, schedule: Q01DX001 (ip), vehicle: saline with Tween-80): 108 % of control and 120 % of control | T/C (dose: 15.0 mg/kg/injection, schedule: Q01DX009 (ip), vehicle: saline with Tween-80): 104 % of control | T/C (dose: 30.0 mg/kg/injection, schedule: Q01DX001 (ip), vehicle: saline with Tween-80): 109 % of control and 113 % of control

Cc1ccc(NC(=O)C(=O)C(C#N)c2c(Cl)cccc2Cl)c(C)c1 (configuration not stated)
T/C [11]: 102 % of control | T/C (dose: 100.0 mg/kg/injection, schedule: Q01DX005 (ip), vehicle: saline with Tween-80): 105 % of control | T/C (dose: 200.0 mg/kg/injection, schedule: Q01DX005 (ip), vehicle: saline with Tween-80): 105 % of control

CCCCCCCCCCCCCC(CCCCCCCC)CCCCCCCC
T/C (dose: 50.0 mg/kg/injection, schedule: Q01DX001 (ip), vehicle: saline sonified): 100 % of control | T/C (dose: 100.0 mg/kg/injection, schedule: Q01DX001 (ip), vehicle: saline sonified): 113 % of control | T/C (dose: 200.0 mg/kg/injection, schedule: Q01DX001 (ip), vehicle: saline sonified): 100 % of control

O=NN(CCCl)C(=O)N1CCCOC1=O
T/C (dose: 12.5 mg/kg/injection, schedule: Q01DX001 (ip), vehicle: saline with Tween-80): 115 % of control and 121 % of control | T/C (dose: 25.0 mg/kg/injection, schedule: Q01DX001 (ip), vehicle: saline with Tween-80): 116 % of control

O=C(CC(=O)c1ccccc1)C(=O)CC(=O)c1ccccc1
T/C (dose: 100.0 mg/kg/injection, schedule: Q04DX002 (ip), vehicle: saline with Tween-80): 103 % of control | T/C (dose: 200.0 mg/kg/injection, schedule: Q04DX002 (ip), vehicle: saline with Tween-80): 99 % of control | T/C (dose: 400.0 mg/kg/injection, schedule: Q04DX002 (ip), vehicle: saline with Tween-80): 99 % of control

C1CC2OC2CC1C1CO1 (configuration not stated)
T/C [2]: 104 % of control | T/C (dose: 100.0 mg/kg/injection, schedule: Q04DX003 (ip), vehicle: saline sonified): 100 % of control | T/C [3]: 104 % of control | T/C (dose: 200.0 mg/kg/injection, schedule: Q04DX003 (ip), vehicle: saline sonified): 100 % of control | T/C (dose: 400.0 mg/kg/injection, schedule: Q04DX003 (ip), vehicle: saline sonified): 109 % of control

C[SiH]12(OC(C(F)(F)F)(C(F)(F)F)c3ccccc31)OC(C(F)(F)F)(C(F)(F)F)c1ccccc12
T/C (dose: 25.0 mg/kg/injection, schedule: Q01DX005 (ip), vehicle: saline with Tween-80): 100 % of control | T/C [11]: 102 % of control

O=C(O)c1ccc(N=NC2Sc3nc4ccccc4n3C2=O)cc1 (configuration not stated)
T/C [12]: 92 % of control | T/C [13]: 91 % of control

NC(N)=NCC(N)C(=O)O (configuration not stated)
T/C [6]: 101 % of control | T/C [7]: 104 % of control | T/C [14]: 104 % of control

Nc1cc2[nH]ccc2c(=O)[nH]1
T/C [15]: 108 % of control | T/C [16]: 113 % of control | T/C [17]: 114 % of control

CCOC(=O)c1cc(-c2ccccn2)c(=O)n2ccccc12
T/C (dose: 12.5 mg/kg/injection, schedule: Q01DX009 (ip), vehicle: saline): 108 % of control | T/C (dose: 25.0 mg/kg/injection, schedule: Q01DX009 (ip), vehicle: saline): 107 % of control | T/C [1]: 100 % of control | T/C [18]: 100 % of control

N#Cc1ccc(NC(=O)Nc2ccc([N+](=O)[O-])cc2Cl)cc1
T/C [8]: 93 % of control | T/C [9]: 86 % of control | T/C [10]: 89 % of control and 92 % of control

Clc1ccc(C2SC=Cc3ccccc32)cc1 (configuration not stated)
T/C [19]: 105 % of control and 113 % of control | T/C [20]: 105 % of control and 115 % of control | T/C [21]: 104 % of control and 112 % of control | T/C [22]: 116 % of control and 122 % of control | T/C (dose: 200.0 mg/kg/injection, schedule: Q01DX009 (ip), vehicle: Klucel (hydroxypropylcellulose) (HPC)): 122 % of control and 95 % of control

COc1cc([C@@H]2c3cc4c(cc3[C@H](O)[C@@H](CO)[C@@H]2C(=O)O)OCO4)cc(OC)c1OC
T/C [15]: 90 % of control | T/C [16]: 94 % of control | T/C [17]: 93 % of control

C=C(C)C(=NC(C)(C)C)Nc1ccccc1
T/C (dose: 10.0 mg/kg/injection, schedule: Q01DX005 (ip), vehicle: saline): 119 % of control | T/C [19]: 121 % of control | T/C [5]: 116 % of control | T/C [20]: 106 % of control | T/C [21]: 107 % of control | T/C [16]: 152 % of control | T/C [22]: 107 % of control

O=C1C2Nc3ccccc3N=C2OC1c1ccccc1 (configuration not stated)
T/C [6]: 96 % of control | T/C [7]: 96 % of control | T/C [14]: 100 % of control

COc1cc(/C(=C(\CC(=O)O)C(=O)O)c2ccc3c(c2)OCO3)cc(OC)c1OC
T/C [6]: 102 % of control and 103 % of control | T/C [7]: 103 % of control and 111 % of control | T/C [14]: 99 % of control and 100 % of control

CC(C)(CCl)C(=O)O
T/C [18]: 95 % of control

O=C1Nc2ccccc2C(=O)C1(O)c1ccccc1 (configuration not stated)
T/C [12]: 105 % of control | T/C [13]: 103 % of control | T/C (dose: 240.0 mg/kg/injection, schedule: Q01DX005 (ip), vehicle: Klucel (hydroxypropylcellulose) (HPC)): 94 % of control

COc1cc(Cc2nc3n(O)cc(-c4ccccc4)nc-3c(=N)n2)cc(OC)c1OC
T/C [5]: 104 % of control | T/C [4]: 108 % of control | T/C [1]: 104 % of control
